Structures can show the parent of a compound that is named as a salt.
Assays:
His6-GSK-3β = target: T1, His6-GSK-3β (Homo sapiens, UniProt P49841); experiment: Inhibition of His6-GSK-3β kinase activity (ELISA-based format, time-resolved fluorescence readout); type: biochemical; settings: for IC50: class symbols, read-out: GSK3β IC50
T1 construct: made in house; host or cells: Sf21 insect cells (baculovirus)
In short: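 N-terminal His6-tagged full-length human GSK-3β (aa 2-419) expressed in Sf21 cells, 200 ng/ml, phosphorylating plate-coated GST-Rb with 20 μM ATP in pH 7.2 HEPES buffer, 30 min at 37° C. Phospho-Rb (Ser-780) detected by antibody plus Eu-labelled secondary, time-resolved fluorescence; IC50 from curves.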

CDK5/GST-p25 = target: T2, CDK5/GST-p25 (Homo sapiens, UniProt Q00535); experiment: Inhibition of CDK5/GST-p25 kinase activity (ELISA with time-resolved fluorescence readout); type: biochemical
T2 construct: The final construct, encoding for full-length human CDK5; made in house; host or cells: Sf21 insect cells (baculovirus co-infection)
T2 sequence (Q00535 whole entry): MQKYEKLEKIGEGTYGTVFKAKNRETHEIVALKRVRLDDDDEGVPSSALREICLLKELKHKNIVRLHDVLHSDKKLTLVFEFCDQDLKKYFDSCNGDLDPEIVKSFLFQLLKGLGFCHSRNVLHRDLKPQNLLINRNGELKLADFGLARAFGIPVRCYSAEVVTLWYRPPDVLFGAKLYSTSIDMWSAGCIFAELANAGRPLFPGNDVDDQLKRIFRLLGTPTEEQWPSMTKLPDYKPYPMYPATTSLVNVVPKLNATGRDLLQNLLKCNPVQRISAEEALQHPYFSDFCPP
T2 sequence (Q15078 108-307 partner limits assumed): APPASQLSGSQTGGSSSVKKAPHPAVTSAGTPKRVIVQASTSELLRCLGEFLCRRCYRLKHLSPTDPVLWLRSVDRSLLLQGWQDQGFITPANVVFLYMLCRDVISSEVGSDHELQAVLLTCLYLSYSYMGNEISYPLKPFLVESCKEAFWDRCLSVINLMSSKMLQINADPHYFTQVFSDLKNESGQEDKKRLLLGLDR
In short: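 Sf21-coexpressed full-length human CDK5 with GST-p25 (p35 aa 108-307), glutathione-purified, at 2 ng/ml was reacted for 20 min at 37 °C on plate-coated GST-Rb(773-928). Buffer was 20 mM HEPES pH 7.2, 10 µM ATP, 10 mM MgCl2 and 2.5% DMSO. Phospho-Rb Ser-780 was detected by Eu-labelled antibody TRF, and IC50 curves were fitted.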

T1 sequence (P49841 2-419): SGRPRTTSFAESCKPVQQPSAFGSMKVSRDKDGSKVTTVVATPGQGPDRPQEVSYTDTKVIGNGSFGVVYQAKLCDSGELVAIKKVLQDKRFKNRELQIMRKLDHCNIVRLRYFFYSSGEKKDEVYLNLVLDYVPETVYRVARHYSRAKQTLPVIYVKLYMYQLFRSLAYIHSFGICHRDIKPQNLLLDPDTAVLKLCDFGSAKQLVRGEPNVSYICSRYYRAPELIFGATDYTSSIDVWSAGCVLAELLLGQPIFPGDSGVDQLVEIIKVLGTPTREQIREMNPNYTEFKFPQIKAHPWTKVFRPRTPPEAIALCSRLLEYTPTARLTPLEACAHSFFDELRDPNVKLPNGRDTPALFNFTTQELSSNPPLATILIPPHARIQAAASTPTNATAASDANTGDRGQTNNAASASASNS

Molecule	melting point [°C]	IC50 (His6-GSK-3β) [µM]	IC50 (CDK5/GST-p25; class symbols) [µM]	GSK3β % @10 μM (His6-GSK-3β; @10 μM) [% @10 μM]	IC50 (CDK5/GST-p25; numeric bounds) [µM]
CNCCCNc1nc(C2C(=O)Nc3ccc(C(F)(F)F)cc32)c2cn(C3CCCC3)nc2n1 (stereo not drawn) (as salt: hydrochloride) [Example 253, 3-[2-Cyclopentyl-6-(3-methylamino-propylamino)-2H-pyrazolo [3,4-d]pyrimidin-4-yl]-5-trifluoromethyl-1,3-dihydro-indol-2-one hydrochloride salt]	260 to 262	–	–	–	–
COCCn1cc2c(C3C(=O)Nc4ccc(Br)cc43)nc(NCCC3CCNCC3)nc2n1 (stereo not drawn) (as salt: hydrochloride) [Example 227, 5-Bromo-3-[2-(2-methoxy-ethyl)-6-(2-piperidin-4-yl-ethylamino)-2H-pyrazolo[3,4-d]pyrimidin-4-yl]-1,3-dihydro-indol-2-one]	248 to 251	–	–	–	–
CNCCCNc1nc(C2C(=O)Nc3ccc(Br)cc32)c2cn(C)nc2n1 (stereo not drawn) (as salt: hydrochloride) [Example 306, 5-Bromo-3-[2-methyl-6-(3-methylamino-propylamino)-2H-pyrazolo [3,4-d]pyrimidin-4-yl]-1,3-dihydro-indol-2-one]	271 to 273	–	–	–	–
CN(C)CCNc1nc(C2C(=O)Nc3ccc(Br)cc32)c2cn(C3CCCC3)nc2n1 (stereo not drawn) (as salt: TFA) [Example 370, 5-Bromo-3-[2-cyclopentyl-6-(2-dimethylamino-ethylamino)-2H-pyrazolo [3,4-d]pyrimidin-4-yl]-1,3-dihydro-indol-2-one]	190 to 192	–	–	–	–
CCCn1cc2c(C3C(=O)Nc4ccc(Br)cc43)nc(NCCCNC)nc2n1 (stereo not drawn) (as salt: hydrochloride) [Example 201, 5-Bromo-3-[6-(3-methylamino-propylamino)-2-propyl-2H-pyrazolo [3,4-d]pyrimidin-4-yl]-1,3-dihydro-indol-2-one hydrochloride]	271 to 273	–	–	–	–
CCCn1cc2c(C3C(=O)Nc4ccc(C#N)cc43)nc(NCc3cccnc3)nc2n1 (stereo not drawn) [Example 184, 2-Oxo-3-{2-propyl-6-[(pyridin-3-ylmethyl)-amino]-2H-pyrazolo[3,4-d]pyrimidin-4-yl}-2,3-dihydro-1H-indole-5-carbonitrile]	–	< 0.3	< 0.3	–	–
O=C1Nc2ccc(Br)cc2C1c1nc(NCCCN2CCOCC2)nc2c1CCC2 (stereo not drawn) [Example 331, 5-Bromo-3-[2-(3-morpholin-4-yl-propylamino)-6,7-dihydro-5H-cyclopentapyrimidin-4-yl]-1,3-dihydro-indol-2-one]	–	0.3 to 3	> 10	–	–
CN(C)CCNc1nc(C2C(=O)Nc3ccc(C#N)cc32)c2cn(C3CCCC3)nc2n1 (stereo not drawn) [Example 119, 3-(2-cyclopentyl-6-(2-dimethylamino-ethylamino)-2H-pyrazolo [3,4-d]pyrimidin-4-yl)-2-oxo-2,3-dihydro-1H-indole-5-carbonitrile]	–	< 0.3	0.3 to 3	–	–
O=C1Nc2ccc(Cl)cc2C1c1nc(Cl)nc2c1CCC2 (stereo not drawn) [Example 316, 5-Chloro-3-(2-chloro-6,7-dihydro-5H-cyclopentapyrimidin-4-yl)-1,3-dihydro-inodol-2-one]	–	> 10	> 10	–	–
CCCn1cc2c(C3C(=O)Nc4ccc(Br)cc43)nc(NCCC(F)(F)F)nc2n1 (stereo not drawn) [Example 192, 5-Bromo-3-[2-propyl-6-(3,3,3-trifluoro-propylamino)-2H-pyrazolo[3,4-d]pyrimidin-4-yl]-1,3-dihydro-indol-2-one]	–	< 0.3	< 0.3	–	–
N#Cc1ccc2c(c1)C(c1nc(NCCc3ccncc3)nc3c1CCC3)C(=O)N2 (stereo not drawn) [Example 345, 2-Oxo-3-[2-(2-pyridin-4-yl-ethylamino)-6,7-dihydro-5H-cyclopentapyrimidin-4-yl]-2,3-dihydro-1H-indole-5-carbonitrile]	–	–	> 10	67	–
N#Cc1ccc2c(c1)C(c1nc(Nc3ccc(N4CCS(=O)(=O)CC4)cc3)nc3nn(C4CCCC4)cc13)C(=O)N2 (stereo not drawn) [Example 135, 3-{2-Cyclopentyl-6-[4-(1,1-dioxo-1λ^6-thiomorpholin-4-yl)-phenylamino]-2H-pyrazolo[3,4-d]pyrimidin-4-yl}-2-oxo-2,3-dihydro-1H-indole-5-carbonitrile]	–	< 0.3	> 10	–	–
CN(Cc1cccnc1)c1nc(C2C(=O)Nc3ccc(C#N)cc32)c2cn(C3CCCC3)nc2n1 (stereo not drawn) [Example 172, 3-[2-Cyclopentyl-6-(methyl-pyridin-3-ylmethyl-amino)-2H-pyrazolo [3,4-d]pyrimidin-4-yl]-2-oxo-2,3-dihydro-1H-indole-5-carbonitrile]	–	< 0.3	> 10	–	–
COCCn1cc2c(C3C(=O)Nc4ccc(Br)cc43)nc(NCCC3CCNCC3)nc2n1 (stereo not drawn) [Example 227, 5-Bromo-3-[2-(2-methoxy-ethyl)-6-(2-piperidin-4-yl-ethylamino)-2H-pyrazolo[3,4-d]pyrimidin-4-yl]-1,3-dihydro-indol-2-one]	–	< 0.3	< 0.3	–	–
COc1ccc(Nc2nc3c(c(C4C(=O)Nc5ccc(C#N)cc54)n2)CCC3)cn1 (stereo not drawn) [Example 352, 3-[2-(6-Methoxy-pyridin-3-ylamino)-6,7-dihydro-5H-cyclopentapyrimidin-4-yl]-2-oxo-2,3-dihydro-1H-indole-5-carbonitrile]	–	> 10	> 10	–	–
O=C1Nc2ccc(Cl)cc2C1c1nc(NCc2cccnc2)nc2c1CCC2 (stereo not drawn) [Example 327, 5-Chloro-3-{2-[(pyridin-3-ylmethyl)-amino]-6,7-dihydro-5H-cyclopentapyrimidin-4-yl}-1,3-dihydro-indol-2-one]	–	0.3 to 3	–	–	> 3
N#Cc1ccc2c(c1)C(c1nc(Cl)nc3c1CCC3)C(=O)N2 (stereo not drawn) [Example 317, 3-(2-Chloro-6,7-dihydro-5H-cyclopentapyrimidin-4-yl)-2-oxo-2,3-dihydro-1H-indole-5-carbonitrile]	–	> 10	> 10	–	–
O=C1Nc2ccc(Br)cc2C1c1nc(Cl)nc2c1CCC2 (stereo not drawn) [Example 314, 5-Bromo-3-(2-chloro-6,7-dihydro-5H-cyclopentapyrimidin-4-yl)-1,3-dihydro-indol-2-one]	–	> 10	> 10	–	–
CN(C)CCOc1nc(C2C(=O)Nc3ccc(C#N)cc32)c2cn(C3CCCC3)nc2n1 (stereo not drawn) [Example 122, 3-[2-cyclopentyl-6-(2-dimethylamino-ethoxy)-2H-pyrazolo[3,4-d]pyrimidin-4-yl]-2-oxo-2,3-dihydro-1H-indole-5-carbonitrile]	–	< 0.3	> 10	–	–
5-Chloro-3-[2-cyclopentyl-6-(2-diethylamino-ethoxy)-2H-pyrazolo [3,4-d]pyrimidin-4-yl]-1,3-dihydro-indol-2-one [Example 141]	–	< 0.3	> 10	–	–
N#Cc1ccc2c(c1)C(c1nc(NCCCN3CCOCC3)nc3c1CCC3)C(=O)N2 (stereo not drawn) [Example 340, 3-[2-(3-Morpholin-4-yl-propylamino)-6,7-dihydro-5H-cyclopentapyrimidin-4-yl]-2-oxo-2,3-dihydro-1H-indole-5-carbonitrile]	–	0.3 to 3	0.3 to 3	–	–
CCCn1cc2c(C3C(=O)Nc4ccc(Br)cc43)nc(NC[C@@H]3CCCO3)nc2n1 (stereo partly drawn) [Example 367, 5-Bromo-3-(2-propyl-6-{[(S)-1-(tetrahydro-furan-2-yl)methyl]-amino}-2H-pyrazolo [3,4-d]pyrimidin-4-yl)-1,3-dihydro-indol-2-one]	–	< 0.3	< 0.3	–	–
N#Cc1ccc2c(c1)C(c1nc(NCCCN3CCCCC3)nc3nn(C4CCCC4)cc13)C(=O)N2 (stereo not drawn) [Example 170, 3[2-Cyclopentyl-6-(3-piperidin-1-yl-propylamino)-2H-pyrazolo[3,4-d]pyrimidin-4-yl]-2-oxo-2,3-dihydro-1H-indole-5-carbonitrile]	–	< 0.3	0.3 to 3	–	–
O=C1Nc2ccc(Cl)cc2C1c1nc(N2CCOCC2)nc2nn(C3CCCC3)cc12 (stereo not drawn) [Example 143, 5-Chloro-3-(2-cyclopentyl-6-morpholin-4-yl-2H-pyrazolo [3,4-d]pyrimidin-4-yl)-1,3-dihydro-indol-2-one]	–	< 0.3	> 10	–	–
N#Cc1ccc2c(c1)C(c1nc(NCCc3ccccn3)nc3nn(C4CCCC4)cc13)C(=O)N2 (stereo not drawn) [Example 125, 3-[2-cyclopentyl-6-(2-pyridin-2-yl-ethylamino)-2H-pyrazolo [3,4-d]pyrimidin-4-yl]-2-oxo-2,3-dihydro-1H-indole-5-carbonitrile]	–	< 0.3	> 10	–	–
N#Cc1ccc2c(c1)C(c1nc(N3CCCCC3)nc3nn(C4CCCC4)cc13)C(=O)N2 (stereo not drawn) [Example 131, 3-(2-cyclopentyl-6-piperidin-1-yl-2H-pyrazolo[3,4-d]pyrimidin-4-yl)-2-oxo-2,3-dihydro-1H-indole-5-carbonitrile]	–	< 0.3	> 10	–	–
O=C1Nc2ccc(Cl)cc2C1c1nc(NCc2ccc(Cl)nc2)nc2c1CCC2 (stereo not drawn) [Example 328, 5-Chloro-3-{2-[(6-chloro-pyridin-3-ylmethyl)-amino]-6,7-dihydro-5H-cyclopentapyrimidin-4-yl}-1,3-dihydro-indol-2-one]	–	> 10	> 10	–	–
CCOCCNc1nc2c(c(C3C(=O)Nc4ccc(Cl)cc43)n1)CCC2 (stereo not drawn) [Example 325, 5-Chloro-3-[2-(2-ethoxy-ethylamino)-6,7-dihydro-5H-cyclopentapyrimidin-4-yl]-1,3-dihydro-indol-2-one]	–	> 10	> 10	–	–
